Measurements as given in PMC5805504 (Oncotarget, 2017).

What was measured:
[1] = design: method as in PMID 21859884; conditions: rats; cited from earlier work
U87MG xenograft tumors = assay: U87MG glioblastoma xenograft tumor model; conditions: galunisertib 25 mg/kg BID oral; lomustine (CCNU) 30 mg/kg single intraperitoneal dose; alone or combined
Experimental: Five million U87MG glioblastoma cells, obtained from ATCC (Manassas, VA), were injected subcutaneously in the flank of 8- to 9-week old, female, athymic nude mice (Harlan, Indianapolis, IN) in a 1:1 mixture of 1x PBS and matrigel (Becton Dickinson, Bedford, MA). Mice were monitored daily for palpable tumors. […] The tumor volumes were recorded at regular intervals following treatment.

Compound | cardiac valve lesions [1] | anti-tumor effect (tumor volume) (U87MG xenograft tumors)
c1ccc(-c2nc3c(c(-n4ccc5cnccc54)n2)CCC3)nc1 [AZ12601011] | induced cardiac valve lesions | 
O=NN(CCCl)C(=O)NC1CCCCC1 [lomustine, reference compound] |  | antitumor activity
